In patent publication US9994566B2, “Compound of 5-hydroxyl-1,7-naphthyridine substituted by aryl or heteroaryl, preparation method thereof and pharmaceutical use thereof” (SHENYANG SUNSHINE PHARMACEUTICAL CO. LTD., priority 2015, dated 2018):
“And” between values parts separate entries of the source, which are not always exact repeats. Equal values may be shown once.

How the values were obtained:
[1] = system: hepatoma cells Hep3B; assay: Promotion of erythropoietin (EPO) expression in hepatoma cells Hep3B in vitro (ELISA); type: cell-based, Human; details: Hep3B supernatant, 24 hours, test doses 100 μmol/L and 10 μmol/L (dose of the tabulated value not given)
From the text: Biological Example 1: Development and Screening of In Vitro Detection Methods: Promotion of Erythropoietin Expression in Hepatoma Cells Hep3B In Vitro by HIF-PHD2 Inhibitor Compounds
The complete medium for culture of Experimental hepatoma cells Hep3B (China Center for Type Culture Collection, CCTCC) was MEM (Cat# GNM 41500, GIBCO, provided by Hangzhou Genom Biopharmaceutical Technology Co., Ltd) supplemented with 10% serum FBS (Cat#10099-141, GIBCO) and 1% P/S (Cat#GNM15140, provided by Hangzhou Genom Biopharmaceutical Technology Co., Ltd). Cells were cultured in a 37° C., 5% CO2 incubator. Experimental reagents included dimethyl sulfoxide (for molecular biology, >=99.9%, Catalog # D8418) purchased from Sigma. The ELISA kit was purchased from Quantikine IVD ELISA, Human Erythropoietin (R&D, DEP00). The test control AKB-6548 was prepared by the inventors or obtained by commercial purchase. The test substance was stored at −20° C. in the dark.
The test substance and the positive control substance were fully dissolved in sterile water or dimethylsulfoxide under dark conditions and prepared into a stock solution at a concentration of 10^−1 mol/L or 10^−2 mol/L. Each of the stock solutions was stored at −20° C. MEM medium containing 0.5% FBS was used as a diluent to dilute the stock solution of the test substance, to prepare a diluted test substance at a concentration of 100 μmol/L and 10 μmol/L. To a 96-well culture plate was added 200 μl/well (1.5 or 2.0×10^4 cells/well) of hepatoma cells Hep3B complete medium suspension and incubated overnight at 37° C. in a 5% CO2 incubator. The solution in the 96-well culture plate was removed and the cells were washed once with the MEM medium containing 0.5% FBS. 200 μl/well of the test substance was added in the dark, at a dose of 100 μmol/L and 10 μmol/L, and each dose set 2 wells, a test well and a spare well. A cell control well was prepared by replacing the test solution with the diluent (without test substance and solvent). A solvent control well was prepared by replacing the test solution with the diluent containing the corresponding concentration of solvent (dimethylsulfoxide) (without test substance). They were cultured in a 5% CO2 incubator at 37° C. for 24 hours. The supernatant was absorbed as a sample and cryopreserved at −20° C. for use. 100 μl/well of stop solution was added. OD value was detected by microplate reader A450 nm-A600 nm. The expression level of EPO (mIU/mL) promoted by the test substance was obtained according to the standard curve.

[2] = system: male Balb/c mice; assay: Effect on increasing erythrocyte of normal mice: reticulocyte (RETIC) count; type: in vivo; details: 25 mg/kg, oral, once a day × 3, four hours after the last administration; for RETIC, individual mice (Mice No. 1-8): one value per mouse; for RETIC, Average: orbital blood
Protocol: Biological Example 3: Effect of the Compounds of the Present Invention on Increasing Erythrocyte of Normal Mice
80 male Balb/c mice were divided into 11 groups, with 8 animals for each drug group, 10 animals for blank control group. Drug group: AKB-6548, 100 mg/kg, oral administration, once a day×3; FG-4592, 25 mg/kg, oral administration, once a day×3; EPO, 100 IU/kg, Day 1 and Day 3, subcutaneous injection, as positive control groups. Each of the compounds of the present invention was orally administrated at 25 mg/kg, once a day×3. Four hours after the last administration, orbital blood of all animals were collected and treated with EDTA-K2 anticoagulant, and reticulocytes (RETIC) were counted with a blood cell automated analyzer.

[3] = target: HIF Prolyl hydroxylases 2 (PHD2) (Homo sapiens, UniProt Q9GZT9); assay: PHD2 inhibition, fluorescence polarization (FP) detection of HIF-1α / VBC complex interaction; type: biochemical; details: PHD2 0.5 μg/μl, FAM-HIF (556-575) 1 μM, 30 minutes room temperature
Chain of HIF Prolyl hydroxylases 2 (PHD2) (Q9GZT9 whole entry, species assumed): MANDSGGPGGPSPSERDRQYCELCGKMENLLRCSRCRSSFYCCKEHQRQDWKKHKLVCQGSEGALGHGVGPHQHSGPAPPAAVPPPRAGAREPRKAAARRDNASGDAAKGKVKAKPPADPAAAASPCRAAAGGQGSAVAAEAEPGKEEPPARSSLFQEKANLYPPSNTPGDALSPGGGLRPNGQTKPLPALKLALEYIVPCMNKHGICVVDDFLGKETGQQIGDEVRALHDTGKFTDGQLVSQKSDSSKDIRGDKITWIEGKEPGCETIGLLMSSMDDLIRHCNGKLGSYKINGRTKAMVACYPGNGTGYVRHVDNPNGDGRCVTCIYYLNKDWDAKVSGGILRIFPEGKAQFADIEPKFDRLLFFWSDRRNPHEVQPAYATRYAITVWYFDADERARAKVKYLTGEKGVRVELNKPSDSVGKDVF
Protocol: The interaction between hypoxia-inducible factor HIF-1α and VBC complex (von Hippel-Lindau protein-Elongin B-Elongin C, VBC) was detected by Fluorescence polarization (FP) method, to measure the enzyme inhibitory activity of the HIF Prolyl hydroxylases 2 (PHD2) inhibitor compounds.
Subsequently, the desired concentration of the test compound or the positive compound was added (the compound was replaced by the buffer in the negative control and the positive control). Finally, PHD2 was added at a final concentration of 0.5 μg/μl (PHD2 was replaced by the buffer in the negative control). They were mixed well and allowed to stand at room temperature for 30 minutes in the dark followed by 95° C. water bath for 1 minute, and then the reaction was terminated. After the temperature drops to room temperature, the sample was prepared well for use. EBC buffer (50 mM Tris.HCl, 120 mM NaCl, 0.5% NP-40) was added to the corresponding wells of a black 96-well test plate. A GST-VBC complex was added to the corresponding test wells at a final concentration of 300 nM (using the wells containing only EBC buffer as blank wells). Subsequently, the corresponding PHD2 prolyl hydroxylation reaction sample was added in the dark as a substrate with a final concentration of 100 nM. After mixing well, the lateral and longitudinal fluorescence intensity values were measured using a full-wavelength multifunctional microplate reader (TECAN infinite M1000) at an excitation wavelength of […] and an emission wavelength of 518 nm.
The fluorescence polarization (mP) was calculated: mP=1000×(lateral value−G factor×longitudinal value)/(lateral value+G factor×longitudinal value) wherein, lateral value=lateral fluorescence intensity value of test well−lateral fluorescence intensity value of blank well, longitudinal value=longitudinal fluorescence intensity value of test well−longitudinal fluorescence intensity value of blank well, […]
The IC50 was calculated using the non-linear regression data analysis method of Graphpad Prism 4.0 software ([…]).

Structure (SMILES)	EPO level of the test substance [1] [mIU/mL]	RETIC, individual mice (Mice No. 1-8) [2]	RETIC, Average [2]	IC50 [3] [µM]
O=C(O)CNC(=O)c1ncc2nc(-c3cccc(Cl)c3)ccc2c1O [Compound 6, 2-{5-hydroxy-[2-(3-chloro)-phenyl]-[1,7]-naphthyridine-6-formamido} acetic acid]	2.268	5.2 (2×) and 4.8 and 6.3 and 4.7 and 6.4 and 3.9 and 5.4	5.24	0.41
O=C(O)CNC(=O)c1ncc2nc(-c3cccc4ccccc34)ccc2c1O [Compound 14, [(5-hydroxy-2-(naphthalene-1-yl)-[1,7]naphthyridine-6-carbonyl)-amino]-acetic acid]	5.435	4 (3×) and 3.8 and 4.1 and 5.8 and 3.4 and 4.3	4.18	10
